“And” between values parts separate entries of the source, which are not always exact repeats. Identical values can stand only once.
Tested on: MDA-MB-468 complex spheroids with HUVEC/MSC, viability
Test: Anticancer human tumor MDA-MB-468 cell line growth inhibition;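 further: spheroids exposed to agents for seven days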;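 on viability, T/C: 100% = DMSO vehicle control viability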
Conditions: for viability, T/C: stronger effect = lower value
Method in brief: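 Multicellular complex spheroids of tumor cells with human endothelial cells (HUVEC) and mesenchymal stem cells; the LSD1 inhibitor iadademstat was combined with standard-of-care or investigational agents. Top concentration at or near clinical Cmax, half-log dilutions; final DMSO ≤0.25%.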

[1] = curve of first compound, second compound 0.1 µM
[2] = curve of first compound, second compound 0.316 µM
[3] = curve of first compound, second compound 1 µM
[4] = curve of first compound, second compound 3.16 µM
[5] = curve of first compound, second compound 10 µM
[6] = second compound 0.1 µM, first compound 0.0316 µM
[7] = second compound 0.1 µM, first compound 0.1 µM
[8] = second compound 0.1 µM, first compound 0.316 µM
[9] = second compound 0.1 µM, first compound 1 µM
[10] = second compound 0.1 µM, first compound 3.16 µM
[11] = second compound 0.1 µM, first compound 10 µM
[12] = second compound 0.316 µM, first compound 0.0316 µM
[13] = second compound 0.316 µM, first compound 0.1 µM
[14] = second compound 0.316 µM, first compound 0.316 µM
[15] = second compound 0.316 µM, first compound 1 µM
[16] = second compound 0.316 µM, first compound 3.16 µM
[17] = second compound 0.316 µM, first compound 10 µM
[18] = second compound 1 µM, first compound 0.0316 µM
[19] = second compound 1 µM, first compound 0.1 µM
[20] = second compound 1 µM, first compound 0.316 µM
[21] = second compound 1 µM, first compound 1 µM
[22] = second compound 1 µM, first compound 3.16 µM
[23] = second compound 1 µM, first compound 10 µM
[24] = second compound 3.16 µM, first compound 0.0316 µM
[25] = second compound 3.16 µM, first compound 0.1 µM
[26] = second compound 3.16 µM, first compound 0.316 µM
[27] = second compound 3.16 µM, first compound 1 µM
[28] = second compound 3.16 µM, first compound 3.16 µM
[29] = second compound 3.16 µM, first compound 10 µM
[30] = second compound 10 µM, first compound 0.0316 µM
[31] = second compound 10 µM, first compound 0.1 µM
[32] = second compound 10 µM, first compound 0.316 µM
[33] = second compound 10 µM, first compound 1 µM
[34] = second compound 10 µM, first compound 3.16 µM
[35] = second compound 10 µM, first compound 10 µM

SMILES	IC50 [1]	IC50 [2]	IC50 [3]	IC50 [4]	IC50 [5]	viability, T/C [6]	viability, T/C [7]	viability, T/C [8]	viability, T/C [9]	viability, T/C [12]	viability, T/C [13]	viability, T/C [14]	viability, T/C [15]	viability, T/C [18]	viability, T/C [19]	viability, T/C [20]	viability, T/C [21]	viability, T/C [24]	viability, T/C [25]	viability, T/C [26]	further results
CC1(C)CCC(CN2CCN(c3ccc(C(=O)NS(=O)(=O)c4ccc(NCC5CCOCC5)c([N+](=O)[O-])c4)c(Oc4cnc5[nH]ccc5c4)c3)CC2)=C(c2ccc(Cl)cc2)C1 + NC1CCC(NC2CC2c2ccccc2)CC1	5.55 µM	5.7 µM	3.81 µM	4.46 µM	4.24 µM	92.8%	87%	103%	98.6%	99.8%	119%	128%	87.6%	73.9%	113%	94.8%	79.1%	87.9%	95.5%	78.1%	viability, T/C [10]: 70%; viability, T/C [11]: 29.1%; viability, T/C [16]: 78%; viability, T/C [17]: 26.4%; viability, T/C [22]: 54%; viability, T/C [23]: 34.8%; viability, T/C [27]: 76.6%; viability, T/C [28]: 61.2%; viability, T/C [29]: 27.2%; viability, T/C [30]: 71.2%; viability, T/C [31]: 68.7%; viability, T/C [32]: 67.1%; viability, T/C [33]: 65.3%; viability, T/C [34]: 58.1%; viability, T/C [35]: 27.8%
Nc1ncn(C2CC(O)C(CO)O2)c(=O)n1 (configuration not stated) + NC1CCC(NC2CC2c2ccccc2)CC1	0.0142 µM	0.00971 µM	0.0123 µM	0.0116 µM	0.00555 µM	28.7%	14.2%	9.84%	8.86%	28.1%	15.6%	9.97%	10.2%	27.5%	15.4%	11.1%	10.6%	28.2%	15.5%	11.3%	viability, T/C (second compound 0.1 µM, first compound 0.00316 µM): 88.4%; viability, T/C (second compound 0.1 µM, first compound 0.01 µM): 59.4%; viability, T/C (second compound 0.316 µM, first compound 0.00316 µM): 84.6%; viability, T/C (second compound 0.316 µM, first compound 0.01 µM): 48.6%; viability, T/C (second compound 1 µM, first compound 0.00316 µM): 83%; viability, T/C (second compound 1 µM, first compound 0.01 µM): 54.9%; viability, T/C (second compound 3.16 µM, first compound 0.00316 µM): 67.7%; viability, T/C (second compound 3.16 µM, first compound 0.01 µM): 53.4%; viability, T/C [27]: 9.32%; viability, T/C (second compound 10 µM, first compound 0.00316 µM): 57.4%; viability, T/C (second compound 10 µM, first compound 0.01 µM): 42.2%; viability, T/C [30]: 24.4%; viability, T/C [31]: 14.4%; viability, T/C [32]: 10.6%; viability, T/C [33]: 10.1%
O=C(c1cc(Cc2n[nH]c(=O)c3ccccc23)ccc1F)N1CCN(C(=O)C2CC2)CC1 + NC1CC1c1ccc(-c2cccc(O)c2)cc1	0.909 µM	0.84 µM	0.645 µM	0.677 µM	0.144 µM	93.6%	88.1%	70.5%	52.7%	88.6%	88.2%	76%	46.2%	98.2%	82.3%	66.7%	43.4%	82%	75.4%	72.5%	viability, T/C [10]: 18.6%; viability, T/C [11]: 14.2%; viability, T/C [16]: 16.2%; viability, T/C [17]: 11.9%; viability, T/C [22]: 13.9%; viability, T/C [23]: 8.61%; viability, T/C [27]: 38.7%; viability, T/C [28]: 12.5%; viability, T/C [29]: 7.33%; viability, T/C [30]: 63%; viability, T/C [31]: 51.4%; viability, T/C [32]: 43.6%; viability, T/C [33]: 26.6%; viability, T/C [34]: 13.8%; viability, T/C [35]: 8.66%
O=C(C=Cn1cnc(-c2cc(C(F)(F)F)cc(C(F)(F)F)c2)n1)NNc1cnccn1																					viability, T/C (compound 0.00316 µM): 39.9% and 36.5%; viability, T/C (compound 0.01 µM): 29.8% and 27.9%; viability, T/C (compound 0.0316 µM): 8.39% and 16.7%; viability, T/C (compound 0.1 µM): 3.01% and 3.24%; viability, T/C (compound 0.316 µM): 2.33% and 1.39%; viability, T/C (compound 1 µM): 1.59% and 0.94%; IC50 (curve of compound): < 0.00316 µM
